Laboratory results taken from ChEMBL document CHEMBL6092169, “Development of selective heterocyclic PDE4 inhibitors for treatment of psoriasis” (Eur J Med Chem, 2024).
Blank lines part the entries; values can stand above or below the compound they belong to. Active and inactive are the calls of the source. No cut-off for these calls is given here.

How the values were obtained:
[1] = target: T1, 3',5'-cyclic-AMP phosphodiesterase 4D (Homo sapiens, UniProt Q08499); assay: Inhibition of full-length PDE4D2 (unknown origin) using FAM-cAMP as substrate at 1 uM preincubated with compound for 15 mins followed by substrate addition and measured after 30 mins by fluorescence polarization based IMAP assay relative to control; settings: time 45.0 min
RAW264.7 [2] = assay: Anti-inflammatory activity in mouse RAW264.7 cells assessed as inhibition of LPS-induced TNF-alpha production at 10 uM incubated for 24 hrs by ELISA relative to control; format: functional; design: scale not given: the % may be the effect or the level left
Mus musculus [3] = assay: (§1) Anti-inflammatory activity against imiquimod-induced psoriasis in male Balb/c mouse model assessed as reduction in erythema score at 0.3 to 1.2 % administration as ointment pretreated with IMQ for 4 hrs followed by compound addition once daily from day 2 to 8; format: functional, organism-based; settings: dose 0.3-1.2 %, time 2-8 day
[4] = Drug absorption in suckling pig skin assessed as skin permeability by measuring transdermal amount per unit area administered topically as 1.2% ointment and measured upto 24 hrs by Franz diffusion cell system; format: ADME, tissue-based, Sus scrofa, Skin of body
[5] = Half life in male ICR mouse at 5 mg/kg, iv measured for 0.083 to 24 hrs by LC-MS/MS analysis; format: ADME, organism-based; settings: in vivo, time 0.083-24 hrs
Mus musculus [6] = assay: as §1, with “increase” for “reduction”, “skin scales” for “erythema score”, “8 by H and E staining based microscopic analysis” for “8”; format: functional, organism-based; settings: dose 0.3-1.2 %, time 2-8 day
[7] = Clearance in male ICR mouse at 5 mg/kg, iv measured for 0.083 to 24 hrs by LC-MS/MS analysis; format: ADME, organism-based; settings: in vivo, time 0.083-24 hrs
Mus musculus [8] = assay: Anti-inflammatory activity against imiquimod-induced psoriasis in male Balb/c mouse model assessed as inhibition of IL-6 expression in skin at 0.3 to 1.2 % administration as ointment pretreated with IMQ for 4 hrs followed by compound addition once daily from day 2 to 8 by ELISA; format: functional, organism-based; settings: dose 0.3-1.2 %, time 2-8 day
Mus musculus [9] = assay: Anti-inflammatory activity against imiquimod-induced psoriasis in male Balb/c mouse model assessed as reduction in thickness score at 0.3 to 1.2 % administration as ointment pretreated with IMQ for 4 hrs followed by compound addition once daily from day 2 to 8; format: functional, organism-based; settings: dose 0.3-1.2 %, time 2-8 day
Mus musculus [10] = assay: Anti-inflammatory activity against imiquimod-induced psoriasis in male Balb/c mouse model assessed as reduction in scales score at 0.3 to 1.2 % administration as ointment pretreated with IMQ for 4 hrs followed by compound addition once daily from day 2 to 8; format: functional, organism-based; settings: dose 0.3-1.2 %, time 2-8 day
Mus musculus [11] = assay: Anti-inflammatory activity against imiquimod-induced psoriasis in male Balb/c mouse model assessed as reduction in spleen weight at 0.3 to 1.2 % administration as ointment pretreated with IMQ for 4 hrs followed by compound addition once daily from day 2 to 8; format: functional, organism-based; settings: dose 0.3-1.2 %, time 2-8 day
[12] = Oral bioavailability in male ICR mouse at 10 mg/kg measured for 0.25 to 24 hrs by LC-MS/MS analysis; format: ADME, organism-based; settings: in vivo, time 0.25-24 hrs
[13] = Cytotoxicity against human HaCaT cells assessed as reduction in cell viability incubated for 24 hrs by CCK-8 assay; format: toxicity, cell-based
[14] = Tmax in male ICR mouse at 10 mg/kg, po measured for 0.25 to 24 hrs by LC-MS/MS analysis; format: ADME, organism-based; settings: in vivo, time 0.25-24 hrs
[15] = Cytotoxicity against mouse RAW264.7 cells assessed as reduction in cell viability incubated for 24 hrs by CCK-8 assay; format: toxicity, cell-based
Mus musculus [16] = assay: as §1, with “Ki67+ cells in back skin” for “erythema score”, “8 by Immunohistochemistry based microscopic analysis” for “8”; format: functional, organism-based; settings: dose 0.3-1.2 %, time 2-8 day
HaCaT = assay: Anti-inflammatory activity in human HaCaT cells assessed as inhibition of M5-induced TNF-alpha production incubated for 24 hrs by ELISA; format: functional, cell-based
[17] = Apparent volume of distribution in male ICR mouse at 5 mg/kg, iv measured for 0.083 to 24 hrs by LC-MS/MS analysis; format: ADME, organism-based; settings: in vivo, time 0.083-24 hrs, read-out: Vz
[18] = Cmax in male ICR mouse at 10 mg/kg, po measured for 0.25 to 24 hrs by LC-MS/MS analysis; format: ADME, organism-based; settings: in vivo, time 0.25-24 hrs
[19] = Half life in male ICR mouse at 10 mg/kg, po measured for 0.25 to 24 hrs by LC-MS/MS analysis; format: ADME, organism-based; settings: in vivo, time 0.25-24 hrs
Mus musculus [20] = assay: Anti-inflammatory activity against imiquimod-induced psoriasis in male Balb/c mouse model assessed as inhibition of TNF-alpha expression in skin at 0.3 to 1.2 % administration as ointment pretreated with IMQ for 4 hrs followed by compound addition once daily from day 2 to 8 by ELISA; format: functional, organism-based; settings: dose 0.3-1.2 %, time 2-8 day
[21] = AUC (0 to t) in male ICR mouse at 5 mg/kg, iv measured for 0.083 to 24 hrs by LC-MS/MS analysis; format: ADME, organism-based; settings: in vivo, time 0.083-24 hrs
[22] = AUC (0 to infinity) in male ICR mouse at 5 mg/kg, iv measured for 0.083 to 24 hrs by LC-MS/MS analysis; format: ADME, organism-based; settings: in vivo, time 0.083-24 hrs
[23] = AUC (0 to infinity) in male ICR mouse at 10 mg/kg, po measured for 0.25 to 24 hrs by LC-MS/MS analysis; format: ADME, organism-based; settings: in vivo, time 0.25-24 hrs
[24] = Drug absorption in suckling pig skin assessed as skin permeability by measuring steady state penetration rate administered topically as 1.2% ointment and measured upto 24 hrs by Franz diffusion cell system; format: ADME, tissue-based, Sus scrofa, Skin of body
Mus musculus [25] = assay: (§2) Anti-inflammatory activity against imiquimod-induced psoriasis in male Balb/c mouse model assessed as increase in skin thickness at 0.3 to 1.2 % administration as ointment pretreated with IMQ for 4 hrs followed by compound addition once daily from day 2 to 8 by H and E staining based microscopic analysis; format: functional, organism-based; settings: dose 0.3-1.2 %, time 2-8 day
Mus musculus [26] = organism: Mus musculus; assay: Anti-inflammatory activity against imiquimod-induced psoriasis in male Balb/c mouse model assessed as reduction in skin lesions pretreated with IMQ for 4 hrs followed by compound addition once daily from day 2 to 8; format: functional, organism-based; settings: dose 0.3-1.2 %, time 2-8 day
Mus musculus [27] = assay: as §2, with “reduction” for “increase”, “immune cell infiltration” for “skin thickness”; format: functional, organism-based; settings: dose 0.3-1.2 %, time 2-8 day
RAW264.7 [28] = assay: Anti-inflammatory activity in mouse RAW264.7 cells assessed as inhibition of LPS-induced TNF-alpha production incubated for 24 hrs by ELISA; format: functional, cell-based; settings: RAW264.7, 24 h
[29] = AUC (0 to t) in male ICR mouse at 10 mg/kg, po measured for 0.25 to 24 hrs by LC-MS/MS analysis; format: ADME, organism-based; settings: in vivo, time 0.25-24 hrs
RAW264.7 [30] = assay: Anti-inflammatory activity in mouse RAW264.7 cells assessed as inhibition of LPS-induced IL-6 production incubated for 24 hrs by ELISA; format: functional, cell-based; settings: RAW264.7, 24 h
[31] = Initial plasma concentration in male ICR mouse at 5 mg/kg, iv measured for 0.083 to 24 hrs by LC-MS/MS analysis; format: ADME, organism-based; settings: time 0.083-24 hrs
[32] = target: T1, 3',5'-cyclic-AMP phosphodiesterase 4D; assay: Inhibition of full-length PDE4D2 (unknown origin) using FAM-cAMP as substrate preincubated with compound for 15 mins followed by substrate addition and measured after 30 mins by fluorescence polarization based IMAP assay

T1 sequence (Q08499 whole entry): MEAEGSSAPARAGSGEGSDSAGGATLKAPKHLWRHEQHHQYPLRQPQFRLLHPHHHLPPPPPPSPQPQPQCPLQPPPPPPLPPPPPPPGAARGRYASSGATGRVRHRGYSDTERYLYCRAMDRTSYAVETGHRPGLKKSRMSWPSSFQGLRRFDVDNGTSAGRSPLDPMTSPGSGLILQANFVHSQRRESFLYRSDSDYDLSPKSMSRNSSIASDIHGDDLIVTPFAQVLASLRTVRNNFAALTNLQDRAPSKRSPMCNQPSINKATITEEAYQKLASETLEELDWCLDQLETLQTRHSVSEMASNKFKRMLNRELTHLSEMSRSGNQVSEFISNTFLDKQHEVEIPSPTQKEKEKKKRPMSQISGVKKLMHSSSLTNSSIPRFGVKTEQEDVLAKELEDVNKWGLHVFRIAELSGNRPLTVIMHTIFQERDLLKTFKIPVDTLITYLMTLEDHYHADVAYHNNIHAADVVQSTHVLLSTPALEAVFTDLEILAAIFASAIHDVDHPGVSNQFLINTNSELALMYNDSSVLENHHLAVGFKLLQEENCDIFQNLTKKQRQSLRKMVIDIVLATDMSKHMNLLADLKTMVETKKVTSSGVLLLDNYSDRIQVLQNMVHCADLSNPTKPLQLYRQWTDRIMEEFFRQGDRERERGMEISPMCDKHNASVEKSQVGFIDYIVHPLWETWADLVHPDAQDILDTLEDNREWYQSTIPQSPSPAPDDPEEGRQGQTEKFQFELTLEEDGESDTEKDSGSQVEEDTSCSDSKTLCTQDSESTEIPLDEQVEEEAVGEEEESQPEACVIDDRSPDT

Compound: COc1cc(-c2nc(C(=O)NCc3ncccn3)c[nH]2)cc(OC)c1OC(F)F
- inhibition [1]: 0.8%

Compound: COc1ccc(CNC(=O)c2c[nH]c(-c3ccc(OC(F)F)c(OCC4CC4)c3)n2)cn1
- Activity (RAW264.7 [2]): 7.74%
- inhibition [1]: 94.1%

Compound: O=C(Nc1ccc2ncsc2c1)c1coc(-c2ccc(OC(F)F)c(OCC3CC3)c2)n1
- Activity (RAW264.7 [2]): 25.05%
- inhibition [1]: 39.6%

Compound: COC(=O)c1coc(-c2ccc(OC(F)F)c(OCC3CC3)c2)n1
- Activity (RAW264.7 [2]): 26.96%
- inhibition [1]: 70.1%

Compound: O=C(NCc1cc(F)ccc1F)c1c[nH]c(-c2ccc(OC(F)F)c(OCC3CC3)c2)n1
- Activity (Mus musculus [3]): Active
- Drug absorption [4]: 81.9 microg/cm2
- half-life [5]: 0.94 h
- Activity (Mus musculus [6]): Active
- clearance [7]: 16.6 mL/min/kg
- Activity (Mus musculus [8]): Active
- Activity (Mus musculus [9]): Active
- Activity (Mus musculus [10]): Active
- Activity (Mus musculus [11]): Active
- bioavailability [12]: 35.6%
- CC50 at 24 h [13]: > 50 µM
- Tmax [14]: 1 h
- CC50 at 24 h [15]: > 50 µM
- Activity (Mus musculus [16]): Active
- IC50 (HaCaT): 22.9 µM
- Vd [17]: 1.35 L/kg
- Cmax [18]: 810 ng/mL
- half-life [19]: 2.21 h
- Activity (Mus musculus [20]): Active
- AUC(0-t) [21]: 5010 ng·h/mL
- AUC(0-inf) [22]: 5020 ng·h/mL
- AUC(0-inf) [23]: 3930 ng·h/mL
- Jss [24]: 3.45 ug/cm2.hr
- Activity (Mus musculus [25]): Active
- Activity (Mus musculus [26]): Dose-dependent-effect
- Activity (Mus musculus [27]): Active
- IC50 (RAW264.7 [28]): 21.4 µM
- AUC(0-t) [29]: 3570 ng·h/mL
- IC50 (RAW264.7 [30]): 29.2 µM
- C0 [31]: 7320 ng/mL

Compound: O=C(NCc1cnccn1)c1c[nH]c(-c2ccc(OC(F)F)c(OCC3CC3)c2)n1
- Activity (RAW264.7 [2]): 16.03%
- inhibition [1]: 95.9%

Compound: O=C(NCc1ncccn1)c1c[nH]c(-c2ccc(OC(F)F)c(OCC3CC3)c2)n1
- CC50 at 24 h [13]: > 50 µM
- IC50 [32]: 0.0005 µM
- CC50 at 24 h [15]: > 50 µM
- IC50 (HaCaT): 19.3 µM
- IC50 (RAW264.7 [28]): 27.3 µM
- IC50 (RAW264.7 [30]): 38.4 µM

Compound: O=C(Nc1ccncc1)c1c[nH]c(-c2ccc(OC(F)F)c(OCC3CC3)c2)n1
- Activity (RAW264.7 [2]): 15.37%
- inhibition [1]: 99.3%

Compound: O=C(NCC1CCOCC1)c1c[nH]c(-c2ccc(OC(F)F)c(OCC3CC3)c2)n1
- Activity (RAW264.7 [2]): 24.03%
- inhibition [1]: 93.9%

Compound: O=C(NCc1ncccn1)c1c[nH]c(-c2ccc(OC(F)F)c(OC(F)F)c2)n1
- Activity (RAW264.7 [2]): 4.06%
- inhibition [1]: 96.3%

Compound: O=C(Nc1ccc2[nH]ccc2c1)c1c[nH]c(-c2ccc(OC(F)F)c(OCC3CC3)c2)n1
- Activity (RAW264.7 [2]): 21.36%
- inhibition [1]: 83.5%

Compound: O=C(O)c1c[nH]c(-c2ccc(OC(F)F)c(OCC3CC3)c2)n1
- Activity (RAW264.7 [2]): 4.22%
- inhibition [1]: 35.7%

Continued, in another order:

- inhibition [1]: 33.4%
Compound: O=C(Nc1nc2ccccc2s1)c1coc(-c2ccc(OC(F)F)c(OCC3CC3)c2)n1
- Activity (RAW264.7 [2]): 25.84%

- inhibition [1]: 89.8%
Compound: O=C(NCc1ccccc1)c1coc(-c2ccc(OC(F)F)c(OCC3CC3)c2)n1
- Activity (RAW264.7 [2]): 8.13%

- inhibition [1]: 64.9%
Compound: O=C(Nc1ccccc1)c1c[nH]c(-c2ccc(OC(F)F)c(OCC3CC3)c2)n1
- Activity (RAW264.7 [2]): 9.32%

- IC50 [32]: 0.0273 µM
Compound: O=C(NCc1c(F)cccc1F)c1coc(-c2ccc(OC(F)F)c(OCC3CC3)c2)n1
- Activity (RAW264.7 [2]): 9.32%

- IC50 [32]: 0.0182 µM
Compound: O=C(NCc1ncccn1)c1coc(-c2ccc(OC(F)F)c(OCC3CC3)c2)n1
- Activity (RAW264.7 [2]): 4.98%

- inhibition [1]: 67.6%
Compound: O=C(NCc1ccc(F)cc1F)c1coc(-c2ccc(OC(F)F)c(OCC3CC3)c2)n1
- Activity (RAW264.7 [2]): 18.06%

- inhibition [1]: 38.8%
Compound: O=C(Nc1ccccc1)c1coc(-c2ccc(OC(F)F)c(OCC3CC3)c2)n1
- Activity (RAW264.7 [2]): 15.78%
